Tested on: HCT-116
Experiment: In vitro cytotoxicity against human colon carcinoma cell line HCT116
Type: functional, cell-based

O=C1C2=CCC[C@@]1(O)C#C/C=C\C#C[C@@H]2O
IC50: 100 nM

Source: ChEMBL document CHEMBL1126511, “Protein damage caused by a synthetic enediyne core” (Bioorg Med Chem Lett, 1993)
